Source: ChEMBL document CHEMBL1151486, “Decomposition of FK 409, a new vasodilator: Identification of nitric oxide as a metabolite” (Bioorg Med Chem Lett, 1995)

Species on record: Oryctolagus cuniculus
Test: Evaluation of vasodilatory activity in Isolated rabbit aorta strips
Assay type: functional

An IC50 of 0.15 µM was found for `CC/C(=C\C(=N/O)C(N)=O)C(C)[N+](=O)[O-]` (configuration not stated) in this work.
An IC50 of 7 µM was found for `CC/C(=C\C(=O)C(N)=O)C(C)[N+](=O)[O-]` (configuration not stated) in this work.
